Laboratory results: the supplement of paper PMC13380429

Legend:
Conditions in all cases: 72 h
[1] = test system: Vero E6; test: drug sensitivity score (DSS) for viability; higher = more toxic; extreme values may be limits of the assay
[2] = test system: Caco-2; test: as above
[3] = test system: HepG2; test: as above
[4] = test system: Calu-3; test: as above
[5] = test system: U2OS; test: as above
[6] = test system: Vero E6; test: cell viability relative to DMSO; higher = less toxic
[7] = test system: Caco-2; test: as above
[8] = test system: HepG2; test: as above
[9] = test system: Calu-3; test: as above
[10] = test system: U2OS; test: as above
[11] = test system: Vero E6; test: relative viability EC50 (midpoint between 100% and the lowest measured viability); higher = less toxic
[12] = test system: Caco-2; test: as above
[13] = test system: HepG2; test: as above
[14] = test system: Calu-3; test: as above
[15] = test system: U2OS; test: as above

Compound | drug sensitivity score [1] | drug sensitivity score [2] | drug sensitivity score [3] | drug sensitivity score [4] | drug sensitivity score [5] | cell viability ([6]; 1 nM) [%] | cell viability ([6]; 10 nM) [%] | cell viability ([6]; 100 nM) [%] | cell viability ([6]; 1000 nM) [%] | cell viability ([6]; 10000 nM) [%] | cell viability ([7]; 1 nM) [%] | cell viability ([7]; 10 nM) [%] | cell viability ([7]; 100 nM) [%] | cell viability ([7]; 1000 nM) [%] | cell viability ([7]; 10000 nM) [%] | cell viability ([8]; 1 nM) [%] | cell viability ([8]; 10 nM) [%] | cell viability ([8]; 100 nM) [%] | cell viability ([8]; 1000 nM) [%] | cell viability ([8]; 10000 nM) [%] | cell viability ([9]; 1 nM) [%] | cell viability ([9]; 10 nM) [%] | cell viability ([9]; 100 nM) [%] | cell viability ([9]; 1000 nM) [%] | cell viability ([9]; 10000 nM) [%] | cell viability ([10]; 1 nM) [%] | cell viability ([10]; 10 nM) [%] | cell viability ([10]; 100 nM) [%] | cell viability ([10]; 1000 nM) [%] | cell viability ([10]; 10000 nM) [%] | relative viability EC50 [11] [µM] | relative viability EC50 [12] [µM] | relative viability EC50 [13] [µM] | relative viability EC50 [14] [µM] | relative viability EC50 [15] [µM]
O=S1(=O)CCN(CN2CCS(=O)(=O)NC2)CN1 [taurolidine] | 0 | 0.2 | 0 | 0 | 0 | 114 | 99.7 | 101 | 97.5 | 99.4 | 102 | 118 | 104 | 96.6 | 87.9 | 106 | 89.8 | 104 | 99.2 | 97.2 | 99.8 | 95.2 | 97.6 | 92.7 | 94.4 | 97.3 | 98.3 | 95.8 | 103 | 98.7 | > 10 | > 10 | > 10 | > 10 | > 10
C[C@]12CC[C@@H]3c4ccc(OS(=O)(=O)O)cc4CC[C@H]3[C@@H]1CCC2=O [estropipate] | 0 | 0 | 0 | 0 | 0 | 99.5 | 95.2 | 102 | 84.8 | 101 | 102 | 96.7 | 112 | 109 | 93.4 | 111 | 110 | 103 | 103 | 97.4 | 99.1 | 99.1 | 99.3 | 111 | 103 | 93.4 | 95.6 | 95 | 98 | 108 | > 10 | > 10 | > 10 | > 10 | > 10
CCCCCOc1c(OC)ccc2cc(C(=O)NCc3ccc4c(c3)OCO4)c(=O)[nH]c12 [JTE-907] | 0 | 0.8 | 0 | 0 | 0 | 90.8 | 99.8 | 94.5 | 94.3 | 110 | 90.9 | 91.1 | 99.9 | 101 | 75.7 | 95 | 97.4 | 100 | 115 | 103 | 102 | 93.9 | 97.3 | 105 | 90.8 | 100 | 99.7 | 103 | 99.5 | 97.4 | > 10 | > 10 | > 10 | > 10 | > 10
CC(C)NCCN(C(C)C)S(=O)(=O)c1ccc(Cl)cc1Cl [RN-1734] | 0 | 0 | 0.4 | 0 | 0 | 97 | 100 | 94.2 | 96.7 | 91.2 | 105 | 95.1 | 97.1 | 94.6 | 97.4 | 99.8 | 89.7 | 102 | 96.8 | 85.9 | 97.1 | 101 | 95.6 | 99.8 | 99.6 | 99.3 | 98.4 | 101 | 95.4 | 94.7 | > 10 | > 10 | > 10 | > 10 | > 10
CC1(C)S[C@@H]2[C@H](NC(=O)Cc3ccccc3)C(=O)N2[C@H]1C(=O)O [benzylpenicillin] | 0 | 0 | 0 | 0 | 0 | 99.5 | 97 | 99 | 98 | 107 | 80.1 | 101 | 97.6 | 95.3 | 106 | 95.9 | 94 | 116 | 99 | 98.2 | 88.5 | 104 | 98.8 | 93.4 | 94.2 | 96.6 | 101 | 101 | 104 | 104 | > 10 | > 10 | > 10 | > 10 | > 10
NC(=O)N/N=C/c1ccc([N+](=O)[O-])o1 [nitrofurazone] | 0 | 0.1 | 0 | 0.2 | 0 | 96.8 | 101 | 95.1 | 97.7 | 106 | 93.8 | 101 | 98.8 | 101 | 87.2 | 92.5 | 101 | 110 | 108 | 87.4 | 104 | 96.9 | 105 | 89 | 95.1 | 101 | 98.1 | 103 | 100 | 103 | > 10 | > 10 | > 10 | > 10 | > 10
FCc1ccc(OCCOc2ccc(Cl)cc2Cl)c(Cl)n1 | 0 | 1.9 | 0.1 | 0 | 0 | 95.2 | 105 | 96.6 | 103 | 103 | 92.7 | 92.8 | 107 | 90.5 | 77 | 94.8 | 97.1 | 98.9 | 104 | 86.3 | 101 | 101 | 101 | 97.9 | 92.4 | 100 | 96.4 | 102 | 94.4 | 92.7 | > 10 | > 10 | > 10 | > 10 | > 10
